Assays:
Assay in all cases: relative viability (nuclei count vs DMSO), 5 days (fraction); higher = more cells survive
[1] = compound: CCN1CCC(CC1)N2C=C(N=N2)CNC3=CC4=C(C(=CN=C4C(=C3)Cl)C#N)NC5=CC(=C(C=C5)F)Cl [KIN001-266] + O=C(c1cc(Cc2n[nH]c(=O)c3ccccc23)ccc1F)N1CCN(C(=O)C2CC2)CC1 [Olaparib] (partner 8 µM)
Method in brief: (§1)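 Relative viability is defined as nuclei in treated wells over nuclei in vehicle wells. Duplicate plates were run and medians reported. Lung cancer cell lines in 1536-well plates were dosed by pin tool one day after seeding, with one drug or with a fixed anchor-drug dose plus five library-drug doses (not always all listed) in √10 steps, and nuclei were counted after 5 days.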

[2] = compound: CCN1CCC(CC1)N2C=C(N=N2)CNC3=CC4=C(C(=CN=C4C(=C3)Cl)C#N)NC5=CC(=C(C=C5)F)Cl [KIN001-266] + CCNC(=O)c1noc(-c2cc(C(C)C)c(O)cc2O)c1-c1ccc(CN2CCOCC2)cc1 [Luminespib] (partner 0.01 µM)
Method in brief: as §1

[3] = compound: CCN1CCC(CC1)N2C=C(N=N2)CNC3=CC4=C(C(=CN=C4C(=C3)Cl)C#N)NC5=CC(=C(C=C5)F)Cl [KIN001-266] + Nc1ncn([C@H]2C[C@H](O)[C@@H](CO)O2)c(=O)n1 [Decitabine] (partner 2 µM)
Method in brief: as §1

[4] = compound: CCN1CCC(CC1)N2C=C(N=N2)CNC3=CC4=C(C(=CN=C4C(=C3)Cl)C#N)NC5=CC(=C(C=C5)F)Cl [KIN001-266] + CS(=O)(=O)CCNCc1ccc(-c2ccc3ncnc(Nc4ccc(OCc5cccc(F)c5)c(Cl)c4)c3c2)o1 [Lapatinib] (partner 2 µM)
Method in brief: as §1

Cell Line | relative viability ([1]; first compound 0.08 µM) | relative viability ([1]; first compound 0.253 µM) | relative viability ([1]; first compound 0.8 µM) | relative viability ([1]; first compound 2.53 µM) | relative viability ([1]; first compound 8 µM) | relative viability ([2]; first compound 0.08 µM) | relative viability ([2]; first compound 0.253 µM) | relative viability ([2]; first compound 0.8 µM) | relative viability ([2]; first compound 2.53 µM) | relative viability ([2]; first compound 8 µM) | relative viability ([3]; first compound 0.08 µM) | relative viability ([3]; first compound 0.253 µM) | relative viability ([3]; first compound 0.8 µM) | relative viability ([3]; first compound 2.53 µM) | relative viability ([3]; first compound 8 µM) | relative viability ([4]; first compound 0.08 µM) | relative viability ([4]; first compound 0.253 µM) | relative viability ([4]; first compound 0.8 µM) | relative viability ([4]; first compound 2.53 µM) | relative viability ([4]; first compound 8 µM)
NCI-H441 | 0.504 | 0.645 | 0.562 | 0.455 | 0.444 | 0.32 | 0.354 | 0.328 | 0.286 | 0.302 | 0.284 | 0.205 | 0.242 | 0.211 | 0.279 | – | – | – | – | –
NCI-H1793 | 0.864 | 0.823 | – | 0.923 | 0.711 | 0.231 | 0.436 | 0.171 | 0.194 | 0.196 | 0.574 | 0.463 | – | 0.476 | 0.364 | 0.646 | 0.643 | 0.81 | 0.485 | 0.561
NCI-H23 | 0.334 | 0.303 | 0.321 | 0.309 | 0.251 | 0.201 | 0.185 | 0.182 | 0.239 | 0.226 | 0.332 | 0.297 | 0.311 | 0.311 | 0.256 | 1.22 | 1.12 | 1 | 0.991 | 0.845
HARA | 0.798 | 0.762 | 0.806 | 0.559 | 0.467 | 0.704 | 0.718 | 0.395 | 0.878 | 0.307 | 0.416 | 0.616 | 0.635 | 0.57 | 0.439 | 0.929 | 0.689 | 0.842 | 0.823 | 0.657
NCI-H1792 | 0.384 | 0.418 | 0.485 | 0.369 | 0.399 | 0.414 | 0.381 | 0.403 | 0.628 | 0.486 | 0.543 | 0.562 | 0.508 | 0.522 | 0.463 | 0.894 | 0.916 | 0.86 | 0.925 | 0.853
NCI-H1703 | 0.451 | 0.386 | 0.435 | 0.391 | 0.401 | – | – | – | – | – | – | – | – | – | – | 1.02 | 0.947 | 1.25 | 0.87 | 0.532
NCI-H2342 | 0.547 | 0.4 | 0.427 | 0.407 | 0.419 | 0.745 | 0.716 | 0.689 | 0.721 | 0.865 | 0.693 | 0.762 | 0.662 | 0.872 | 0.817 | – | – | – | – | –
CAL-12T | 0.785 | 0.732 | 0.663 | 0.652 | 0.633 | 0.363 | 0.322 | 0.499 | 0.475 | 0.2 | – | – | – | – | – | 0.826 | 0.706 | – | 0.679 | 0.626
NCI-H727 | 0.679 | 0.649 | 0.626 | 0.683 | 0.531 | 0.359 | 0.316 | 0.346 | 0.246 | 0.514 | 0.9 | 0.954 | 0.744 | 0.755 | 0.643 | 0.821 | 1.1 | 0.806 | 0.805 | 0.537
NCI-H2085 | 0.763 | 0.791 | 0.725 | 0.721 | 0.598 | 0.412 | 0.437 | 0.404 | 0.434 | 0.429 | 0.567 | 0.57 | 0.517 | 0.474 | 0.499 | 0.829 | 0.853 | 0.716 | 0.755 | 0.617
NCI-H1395 | 0.478 | 0.441 | 0.447 | 0.429 | 0.427 | 0.829 | 0.76 | 0.619 | 0.545 | 0.659 | 0.731 | 0.687 | 0.75 | 0.687 | 0.758 | 1.28 | 1.13 | 1.25 | 0.935 | 1.16
NCI-H1648 | 1 | 0.711 | 0.816 | 0.55 | 0.996 | – | – | – | – | – | 0.487 | 0.497 | 0.501 | 0.507 | 0.517 | – | – | – | – | –
NCI-H460 | 0.418 | 0.447 | 0.466 | 0.308 | 0.409 | 0.0348 | 0.0385 | 0.0335 | 0.0269 | 0.0404 | 0.483 | 0.477 | 0.475 | 0.433 | 0.438 | 0.891 | 0.933 | 1.13 | 1 | 0.954
A549 | 0.367 | 0.279 | 0.297 | 0.347 | 0.305 | – | – | – | – | – | 0.401 | 0.207 | 0.24 | 0.35 | 0.223 | 1.03 | 0.991 | 1.05 | 0.924 | 0.84
IA-LM | 0.884 | 0.791 | 0.845 | 0.853 | 0.625 | – | – | – | – | – | – | – | – | – | – | 0.967 | 0.752 | 0.989 | 0.861 | 0.474
EKVX | 0.914 | 0.899 | 0.844 | 0.78 | 0.865 | 0.86 | 0.869 | 0.735 | 0.89 | 0.986 | 0.364 | 0.422 | 0.368 | 0.364 | 0.358 | 0.284 | 0.182 | 0.204 | 0.202 | 0.171
ChaGo-K-1 | 0.401 | 0.422 | 0.301 | 0.282 | 0.227 | 0.689 | 0.741 | 0.385 | 0.57 | 0.327 | 0.502 | 0.517 | 0.508 | 0.506 | 0.38 | – | – | – | – | –
SW 900 | 0.964 | 0.88 | 0.877 | 0.821 | 0.335 | 0.143 | 0.177 | 0.154 | 0.173 | 0.167 | 0.733 | 0.448 | 0.463 | 0.427 | 0.343 | – | – | – | – | –
NCI-H1755 | 0.933 | 0.865 | 0.896 | 0.864 | 0.815 | 0.339 | 0.799 | 0.389 | 0.445 | 0.418 | 0.67 | 0.735 | 0.647 | 0.654 | 0.707 | 0.987 | 1.04 | 1.06 | 0.996 | 0.987
